Measured values published in patent US8901118B2, “Compounds and methods for kinase modulation, and indications therefor” (Plexxikon Inc., priority 2010, dated 2014).

How the values were obtained:
[1] = biological target: T1, CYP1A2 (Homo sapiens, UniProt P05177); assay: CYP1A2 inhibition (fluorescent substrate CEC); assay type: in vitro ADME; settings: read-out: Cyp IC50 1A2
T1 sequence (P05177 1-516): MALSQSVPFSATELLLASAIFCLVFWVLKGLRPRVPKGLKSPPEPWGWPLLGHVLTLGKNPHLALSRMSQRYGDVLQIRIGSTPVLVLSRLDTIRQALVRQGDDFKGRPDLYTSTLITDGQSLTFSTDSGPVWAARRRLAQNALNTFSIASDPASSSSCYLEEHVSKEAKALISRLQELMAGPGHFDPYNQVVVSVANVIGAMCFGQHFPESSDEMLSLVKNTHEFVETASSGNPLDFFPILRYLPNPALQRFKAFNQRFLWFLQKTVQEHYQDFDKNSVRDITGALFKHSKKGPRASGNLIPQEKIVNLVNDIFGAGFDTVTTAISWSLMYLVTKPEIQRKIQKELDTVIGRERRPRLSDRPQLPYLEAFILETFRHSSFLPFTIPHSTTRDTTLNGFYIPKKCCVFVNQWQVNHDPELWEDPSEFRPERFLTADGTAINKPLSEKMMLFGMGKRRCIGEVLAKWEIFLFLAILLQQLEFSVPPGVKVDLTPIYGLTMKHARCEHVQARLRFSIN
Method in brief: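 Inhibition is measured as the drop in fluorescent metabolite formation across a 10-point compound titration with NADPH regeneration at 37 °C. Incubation lasts 15 min for CYP1A2, 45 min for CYP2C9 and 30 min for CYP2C19 and CYP2D6.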

[2] = biological target: T2, BCR-KIT BaF3 cells (Homo sapiens, UniProt P10721); assay: BaF3 BCR-KIT cell proliferation assay (ATPlite); assay type: cell-based; settings: read-out: Inhibition of Cell Proliferation IC50, BCR/BaF3 Kit
T2 construct: fused on or other part: P11274 (Breakpoint cluster region protein)
T2 sequence (P10721 589-937): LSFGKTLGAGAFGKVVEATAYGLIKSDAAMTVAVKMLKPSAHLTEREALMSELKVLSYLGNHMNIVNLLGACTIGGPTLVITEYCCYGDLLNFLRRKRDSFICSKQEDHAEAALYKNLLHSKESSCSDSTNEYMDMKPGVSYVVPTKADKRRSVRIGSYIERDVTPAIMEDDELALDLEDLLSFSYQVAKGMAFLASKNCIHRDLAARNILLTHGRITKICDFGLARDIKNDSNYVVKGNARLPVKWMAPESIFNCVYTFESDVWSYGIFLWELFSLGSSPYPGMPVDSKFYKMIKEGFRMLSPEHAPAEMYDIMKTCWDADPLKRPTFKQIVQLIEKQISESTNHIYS
Method in brief: (§1)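 ATP-based luminescence (ATPlite), read after 10 min at room temperature, served as a proxy for cell number, and IC50 was fitted against compound concentration. Before that, cells were treated for 3 days with an 8-point 1:3 dilution series starting at 10 μM. BaF3 cells were plated at 10,000/well without IL-3, and MV-4-11 cells at 25,000/well.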

[3] = biological target: CYP3A4(BQ) (Homo sapiens, UniProt P08684); assay: CYP3A4(BQ) inhibition; assay type: in vitro ADME; settings: CYP3A4, substrate BQ; read-out: Cyp IC50 3A4(BQ)
Chain of CYP3A4(BQ) (P08684 whole entry): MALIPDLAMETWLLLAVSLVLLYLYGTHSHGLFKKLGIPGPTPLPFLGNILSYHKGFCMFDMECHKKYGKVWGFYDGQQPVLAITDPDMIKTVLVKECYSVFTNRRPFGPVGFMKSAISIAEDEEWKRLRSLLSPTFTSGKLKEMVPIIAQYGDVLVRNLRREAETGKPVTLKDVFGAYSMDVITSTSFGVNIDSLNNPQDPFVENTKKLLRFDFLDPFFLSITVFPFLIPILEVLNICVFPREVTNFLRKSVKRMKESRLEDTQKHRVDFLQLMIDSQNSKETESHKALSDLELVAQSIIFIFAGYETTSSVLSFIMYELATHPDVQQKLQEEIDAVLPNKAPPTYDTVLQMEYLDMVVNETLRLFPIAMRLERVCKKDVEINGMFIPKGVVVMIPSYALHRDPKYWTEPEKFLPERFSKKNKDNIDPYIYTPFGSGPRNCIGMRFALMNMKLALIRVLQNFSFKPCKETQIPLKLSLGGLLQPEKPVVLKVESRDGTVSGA
Method in brief: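 Inhibition of human CYP3A4 (BQ substrate) was measured by fluorescence, since blocking metabolism of a known substrate lowers the fluorescent product signal. Compounds dissolved in DMSO at 100 mM were diluted into acetonitrile and then into NADPH regeneration cofactor mix, serially diluted 1:1 across 10 points, and preincubated in 384 well plates for 10 minutes at 37° C.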

[4] = biological target: T3, BCR-NTRK3 BaF3 cells (Homo sapiens, UniProt Q16288); assay: BaF3 BCR-NTRK3 cell proliferation assay (ATPlite); assay type: cell-based; settings: read-out: Inhibition of Cell Proliferation IC50, BCR/BaF3 TrkC
T3 construct: fused on or other part: P11274 (Breakpoint cluster region protein)
T3 sequence (Q16288 whole entry, the tested form may be a part): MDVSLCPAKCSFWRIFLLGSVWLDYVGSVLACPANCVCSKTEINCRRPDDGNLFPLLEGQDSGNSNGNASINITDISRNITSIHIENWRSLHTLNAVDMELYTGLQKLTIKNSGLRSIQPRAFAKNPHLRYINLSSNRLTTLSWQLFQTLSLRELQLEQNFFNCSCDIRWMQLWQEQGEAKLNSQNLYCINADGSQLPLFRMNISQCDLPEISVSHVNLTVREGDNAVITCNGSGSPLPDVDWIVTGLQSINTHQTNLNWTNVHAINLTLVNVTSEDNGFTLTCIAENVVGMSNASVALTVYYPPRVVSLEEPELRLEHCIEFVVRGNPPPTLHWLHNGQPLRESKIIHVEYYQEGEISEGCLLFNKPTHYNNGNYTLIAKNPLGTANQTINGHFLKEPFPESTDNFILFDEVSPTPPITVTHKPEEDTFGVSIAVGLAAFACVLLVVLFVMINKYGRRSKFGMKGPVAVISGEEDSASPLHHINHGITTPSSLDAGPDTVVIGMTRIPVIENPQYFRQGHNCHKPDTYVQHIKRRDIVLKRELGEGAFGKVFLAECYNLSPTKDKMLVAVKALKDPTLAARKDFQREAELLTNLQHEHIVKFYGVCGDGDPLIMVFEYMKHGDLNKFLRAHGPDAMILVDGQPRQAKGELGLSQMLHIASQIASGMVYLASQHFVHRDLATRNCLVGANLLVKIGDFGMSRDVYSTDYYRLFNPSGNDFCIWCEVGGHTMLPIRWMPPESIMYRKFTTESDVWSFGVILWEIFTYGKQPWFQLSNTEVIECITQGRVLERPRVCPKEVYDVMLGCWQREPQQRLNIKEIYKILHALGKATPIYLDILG
Method in brief: as §1

Compound	IC50 [1] [µM]	IC50 [2] [µM]	IC50 [3] [µM]	IC50 [4] [µM]
CCNc1ncnc2[nH]cc(C(=O)c3ccc(Nc4ccc(CC)nc4)nc3F)c12 [Compound P-4123, [4-(ethylamino)-7H-pyrrolo[2,3-d]pyrimidin-5-yl]-[6-[(6-ethyl-3-pyridyl)amino]-2-fluoro-3-pyridyl]methanone]	> 10	< 0.1	> 10	< 0.01
O=C(c1ccc(NC2CCC(F)(F)CC2)nc1Cl)c1c[nH]c2ncnc(NC3CC3)c12 [Compound P-4059, [2-chloro-6-[(4,4-difluorocyclohexyl)amino]-3-pyridyl]-[4-(cyclopropylamino)-7H-pyrrolo[2,3-d]pyrimidin-5-yl]methanone]	> 10	> 1	> 10	< 0.1
COc1cncc(Nc2ccc(C(=O)c3c[nH]c4ncnc(NC(C)C)c34)c(F)n2)c1 [Compound P-4106, [2-fluoro-6-[(5-methoxy-3-pyridyl)amino]-3-pyridyl]-[4-(isopropylamino)-7H-pyrrolo[2,3-d]pyrimidin-5-yl]methanone]	< 5	< 1	> 10	< 0.01
COc1ccc(Nc2ccc(C(=O)c3c[nH]c4ncnc(N5CCCCC5)c34)c(F)n2)cn1 [Compound P-4069, [2-fluoro-6-[(6-methoxy-3-pyridyl)amino]-3-pyridyl]-[4-(1-piperidyl)-7H-pyrrolo[2,3-d]pyrimidin-5-yl]methanone]	> 10	> 1	> 10	> 1
COc1ccc(Nc2ccc(C(=O)c3c[nH]c4ncnc(NC5CC5)c34)c(F)n2)cn1 [Compound P-4126, [4-(cyclopropylamino)-7H-pyrrolo[2,3-d]pyrimidin-5-yl]-[2-fluoro-6-[(6-methoxy-3-pyridyl)amino]-3-pyridyl]methanone]	< 5	< 0.1	5 to 10	< 0.01
CCc1ccc(Nc2ccc(C(=O)c3c[nH]c4ncnc(NC5CCC5)c34)c(F)n2)cn1 [Compound P-4095, [4-(cyclobutylamino)-7H-pyrrolo[2,3-d]pyrimidin-5-yl]-[6-[(6-ethyl-3-pyridyl)amino]-2-fluoro-3-pyridyl]methanone]	> 10	< 0.1	> 10	< 0.01
COc1ccc(Nc2ccc(C(=O)c3c[nH]c4ncnc(NCc5ccc(C(F)(F)F)nc5)c34)c(F)n2)cn1 [Compound P-4071, [2-fluoro-6-[(6-methoxy-3-pyridyl)amino]-3-pyridyl]-[4-[[6-(trifluoromethyl)-3-pyridyl]methylamino]-7H-pyrrolo[2,3-d]pyrimidin-5-yl]methanone]	> 10	< 0.1	> 10	< 0.01
O=C(c1ccc(NC2CCC(F)(F)CC2)nc1F)c1c[nH]c2ncnc(NC3CC3)c12 [Compound P-4062, [4-(cyclopropylamino)-7H-pyrrolo[2,3-d]pyrimidin-5-yl]-[6-[(4,4-difluorocyclohexyl)amino]-2-fluoro-3-pyridyl]methanone]	> 10	< 1	> 10	< 0.01
CCc1ccc(Nc2ccc(C(=O)c3c[nH]c4ncnc(NC)c34)c(F)n2)cn1 [Compound P-4124, [6-[(6-ethyl-3-pyridyl)amino]-2-fluoro-3-pyridyl]-[4-(methylamino)-7H-pyrrolo[2,3-d]pyrimidin-5-yl]methanone]	< 5	< 0.1	> 10	< 0.01
Fc1ccc(Nc2ncc(Cc3c[nH]c4ncc(Cl)cc34)cn2)cc1 [Compound P-3012, [5-(5-Chloro-1H-pyrrolo[2,3-b]pyridin-3-ylmethyl)-pyrimidin-2-yl]-(4-fluoro-phenyl)-amine]	> 10	< 1	> 10	< 1
COc1ccc(Nc2ccc(C(=O)c3c[nH]c4ncnc(NCC(F)(F)F)c34)c(F)n2)cn1 [Compound P-4084, [2-fluoro-6-[(6-methoxy-3-pyridyl)amino]-3-pyridyl]-[4-(2,2,2-trifluoroethylamino)-7H-pyrrolo[2,3-d]pyrimidin-5-yl]methanone]	> 10	< 1	> 10	< 0.01
CNc1ncnc2[nH]cc(C(=O)c3ccc(Nc4ccc(OC)nc4)nc3F)c12 [Compound P-4083, [2-fluoro-6-[(6-methoxy-3-pyridyl)amino]-3-pyridyl]-[4-(methylamino)-7H-pyrrolo[2,3-d]pyrimidin-5-yl]methanone]	> 10	< 0.1	> 10	< 0.01
O=C(c1ccc(Nc2ccc(C(F)(F)F)nc2)nc1F)c1c[nH]c2ncnc(NC3CC3)c12 [Compound P-4091, [4-(cyclopropylamino)-7H-pyrrolo[2,3-d]pyrimidin-5-yl]-[2-fluoro-6-[[6-(trifluoromethyl)-3-pyridyl]amino]-3-pyridyl]methanone]	> 10	< 0.1	> 10	< 0.01
O=C(c1ccc(NC2CCC(F)(F)CC2)nc1Cl)c1c[nH]c2ncnc(NCC(F)(F)F)c12 [Compound P-4057, [2-chloro-6-[(4,4-difluorocyclohexyl)amino]-3-pyridyl]-[4-(2,2,2-trifluoroethylamino)-7H-pyrrolo[2,3-d]pyrimidin-5-yl]methanone]	> 10	> 1	> 10	< 1
COc1ccc(Nc2ccc(C(=O)c3c[nH]c4ncnc(NCC5CC5)c34)c(F)n2)cn1 [Compound P-4067, [4-(cyclopropylmethylamino)-7H-pyrrolo[2,3-d]pyrimidin-5-yl]-[2-fluoro-6-[(6-methoxy-3-pyridyl)amino]-3-pyridyl]methanone]	> 10	< 0.1	> 10	< 0.01
CCc1ccc(Nc2ccc(C(=O)c3c[nH]c4ncnc(NCC(F)(F)F)c34)c(F)n2)cn1 [Compound P-4120, [6-[(6-ethyl-3-pyridyl)amino]-2-fluoro-3-pyridyl]-[4-(2,2,2-trifluoroethylamino)-7H-pyrrolo[2,3-d]pyrimidin-5-yl]methanone]	< 5	< 1	> 10	< 0.01
CCc1ccc(Nc2ccc(C(=O)c3c[nH]c4ncnc(NC5CC5)c34)c(F)n2)cn1 [Compound P-4125, [4-(cyclopropylamino)-7H-pyrrolo[2,3-d]pyrimidin-5-yl]-[6-[(6-ethyl-3-pyridyl)amino]-2-fluoro-3-pyridyl]methanone]	> 10	< 0.1	> 10	< 0.01
O=C(c1ccc(NC2CCC(F)(F)CC2)nc1)c1c[nH]c2ncnc(NCC(F)(F)F)c12 [Compound P-4087, [6-[(4,4-difluorocyclohexyl)amino]-3-pyridyl]-[4-(2,2,2-trifluoroethylamino)-7H-pyrrolo[2,3-d]pyrimidin-5-yl]methanone]	> 10	> 1	> 10	< 0.01
Cc1ccc(Nc2ccc(C(=O)c3c[nH]c4ncnc(NCC(F)(F)F)c34)c(F)n2)cn1 [Compound P-4112, [2-fluoro-6-[(6-methyl-3-pyridyl)amino]-3-pyridyl]-[4-(2,2,2-trifluoroethylamino)-7H-pyrrolo[2,3-d]pyrimidin-5-yl]methanone]	< 5	> 1	> 10	< 0.01
COc1ccc(Nc2ccc(C(=O)c3c[nH]c4ncnc(NCC5CCCO5)c34)c(F)n2)cn1 (stereo not drawn) [Compound P-4073, [2-fluoro-6-[(6-methoxy-3-pyridyl)amino]-3-pyridyl]-[4-(tetrahydrofuran-2-ylmethylamino)-7H-pyrrolo[2,3-d]pyrimidin-5-yl]methanone]	> 10	< 1	> 10	< 0.01
COc1ccc(Nc2ccc(C(=O)c3c[nH]c4ncnc(N[C@@H](C)c5ccc(F)cc5)c34)c(F)n2)cn1 [Compound P-4072, [2-fluoro-6-[(6-methoxy-3-pyridyl)amino]-3-pyridyl]-[4-[[(1S)-1-(4-fluorophenyl)ethyl]amino]-7H-pyrrolo[2,3-d]pyrimidin-5-yl]methanone]	> 10	< 1	> 10	< 0.01
